Reference: patent publication US20080193411A1, “Anti-viral Compounds” (Genelabs Technologies, Inc., priority 2006, published 2008)

System: HCV replication
Test: HCV replicon assay (luciferase), ET (Huh-lucubineo-ET) cell line
Assay type: cell-based
Conditions: Hepatitis C virus; tested at 10 μM; ET (Huh-lucubineo-ET) replicon cells; luciferase activity 48-72 hours; relative to no compound control
Experimental: A cell line, ET (Huh-lucubineo-ET) was used for screening of compounds of the present invention for inhibiting HCV replication. The ET cell line was stably transfected with RNA transcripts harboring a I389luc-ubi-neo/NS3-3′/ET; replicon with firefly luciferase-ubiquitin-neomycin phosphotransferase fusion protein and EMCV-IRES driven NS3-5B polyprotein containing the cell culture adaptive mutations (E1202G; T1280I; K1846T) (Krieger at al, 2001 and unpublished). The ET cells were grown in DMEM (Dulbeco's Modified Eagle's Medium), supplemented with 10% fetal calf serum, 2 mM Glutamine, Penicillin (100 IU/mL)/Streptomycin (100 μg/mL), 1× nonessential amino acids, and 250 μg/mL G418 (“Geneticin”). They were all available through Life Technologies (Bethesda, Md.). The cells were plated at 0.5-1.0×10^4 cells/well in the 96 well plates and incubated for 24 hrs before adding testing compounds. Then the compounds were added to the cells to achieve a final concentration of 0.1 nM to 50 μM and a final DMSO concentration of 0.5%. Luciferase activity were measured 48-72 hours later by adding a lysis buffer and the substrate (Catalog number Glo-lysis buffer E2661 and Bright-Glo luciferase system E2620 Promega, Madison, Wis.). Cells should not be too confluent during the assay. Percent inhibition of replication was plotted relative to no compound control. Under the same condition, cytotoxicity of the compounds was determined using cell proliferation reagent, WST-1 (Roche, Germany). The compounds showing antiviral activities, but no significant cytotoxicities were chosen to determine EC50 and TC50. For these determinations, a 10 point 2-fold serial dilution for each compound was used, which spans a concentration range of 1000 fold. EC50 and similarly TC50 values were calculated by fitting % inhibition at each concentration to the following equation:
% inhibition=100%/[(IC50/[I])^b+1]
where b is Hill's coefficient.
In some preferred embodiments compounds of Formula I will have a % inhibition of at least 20% when tested at 10 μM. In other embodiments the compounds of Formula I will have a % inhibition of at least 50% when tested at 10 μM.

Compound | inhibition at 10 µM [%]
Cc1nc2cc(-c3ccc4nc([C@@H]5CCCN5C(=O)OCc5ccccc5)[nH]c4c3)ccc2s1 [Compound 4051, (S)-2-[6-(2-Methyl-benzothiazol-5-yl)-1H-benzoimidazol-2-yl]-pyrrolidine-1-carboxylic acid benzyl ester] | 32.8
O=C(OCc1ccccc1)N1CCC[C@H]1c1nc2ccc(-c3cccc(O)c3)cc2[nH]1 [Compound 4054, (S)-2-[6-(3-Hydroxy-phenyl)-1H-benzoimidazol-2-yl]-pyrrolidine-1-carboxylic acid benzyl ester] | 99.3
O=C(NC1CC1)c1ccc(-c2csc(NC[C@@H]3CCCN3C(=O)OCc3ccccc3)n2)cc1 [Compound 4055, (S)-2-{[4-(4-Cyclopropylcarbamoyl-phenyl)-thiazol-2-ylamino]-methyl}-pyrrolidine-1-carboxylic acid benzyl ester] | 44
O=C(NCc1cccc(-c2ccc3nc([C@@H]4CCCN4C(=O)OCc4ccccc4)[nH]c3c2)c1)C1CC1 [Compound 4057, (S)-2-(6-{3-[(Cyclopropanecarbonyl-amino)-methyl]-phenyl}-1H-benzoimidazol-2-yl)-pyrrolidine-1-carboxylic acid benzyl ester] | 99.4
O=C(NC1CC1)c1ccc(-c2cccc(C#C[C@@H]3CCCN3C(=O)OCc3ccccc3)c2)cc1 [Compound 4060, (S)-2-(4′-Cyclopropylcarbamoyl-biphenyl-3-ylethynyl)-pyrrolidine-1-carboxylic acid benzyl ester] | 48.4
